From ChEMBL document CHEMBL1151894, “Novel immunoconjugates comprised of streptonigrin and 17-amino-geldanamycin attached via a dipeptide-p-aminobenzyl-amine linker system” (Bioorg Med Chem Lett, 2009)

Experiments:
Format in all cases: functional, cell-based
[1] = tested on: KARPAS-299; experiment: Cytotoxicity against CD30 expressing and CD70 deficient human KARPAS299 cells after 96 hrs by resazurin conversion assay; conditions: KARPAS-299, 96 h
[2] = Cytotoxicity against CD30 expressing and CD70 deficient human L540cy cells after 96 hrs by resazurin conversion assay
[3] = tested on: CAKI-1; experiment: Cytotoxicity against CD30 deficient and CD70 expressing human Caki1 cells after 96 hrs by resazurin conversion assay; conditions: CAKI-1, 96 h

## COC1=C(N)C(=O)c2nc(-c3nc(C(=O)O)c(C)c(-c4ccc(OC)c(OC)c4O)c3N)ccc2C1=O [STREPTONIGRIN]
[1]
  IC50: 0.4 nM
[2]
  IC50: 0.8 nM
[3]
  IC50: 0.4 nM
